From patent publication US6235736A, “3-anilino-2-cycloalkenone derivatives” (Nikken Chemicals Co., Ltd., priority 1997, dated 2001) come the findings set out here.

One experiment concerns Type IV PDE. Briefly: PDE IV inhibitory activity (isozyme partially purified from rat neutrophils, 3H-cAMP substrate). Particulars: rat neutrophil PDE IV, 30° C., 30 minutes, read-out: PDE IV inhibiting action IC50. The class given is biochemical. The protocol:
Type I, III, IV, and V PDE isozymes were prepared to study the PDE inhibitory activities of and selectivities with the compound of the invention [Trends Pharmacol Sci., 12, 19-27 (1991)]. Type I PDE was purchased from Sigma Corp. Type III, IV, and V PDE isozymes were partially purified from platelets (Type III and V) or neutrophils (Type IV) collected from rats. Each enzyme source was homogenized in a buffer (pH 6.5) containing 20 mM bisTris, 2 mM EDTA (i.e., ethlenediamine tetraacetate), 2-mercaptoethanol, 0.001 mM pepstatin and 0.01 mM leupeptin and was centrifuged at 30000×G for 30 minutes to obtain a supernatant, which was applied to an ion exchange column (Q-sepharose first flow, Pharmacia Corp.) and was eluted with 0 to 1M sodium acetate. Partially purified isozymes were identified by observing the inhibitory effects of conventional inhibitors.
Each PDE isozyme and the test compound dissolved in DMSO (i.e., dimethylsulfoxide) were added to 50 mM Tris--HCI buffer containing 5 mM magnesium chloride. ^3 H-cAMP (for type III and IV PDE) or ^3 H-cGMP (for type I and V PDE) were added as substrates and were reacted at 30° C. for 30 minutes. The reaction was terminated by placing the test tube in boiling water of 100° C. for 5 minutes. The nucleotides formed by PDE were broken down to ^3 H-adenosine or ^3 H-guanosine by 5'-nucleotidase. The substrate and reaction product were separated through an ion-exchange column (i.e., QAE sephadex, Pharmacia Corp.)
The eluted ^3 -H-nucleoside was measured for its radioactivity by a liquid scintillation counter. The inhibitory activities of the compound of the present invention are shown by the IC50 value (M). Further, the inhibitory activities of the test samples against type I, III, and V PDE are 1/10 or less than that against Type IV PDE.

The test system of experiment [1] is TPA induced ear edema in mouse. Briefly: TPA induced mouse ear edema assay. Particulars: 0.1 mg applied to right ear immediately after TPA; 6 hour. The class given is in vivo, mouse (male ICR). The method, then: Male ICR mice, 5 week old, were divided into groups of seven to eight. 2 μg of TPA (phorbor 12-ministate; Sigma Co.) in 20 μl acetone was applied to the inner and outer surface of right ear of each mouse to cause a reaction. 0.1 mg of compound was dissolved in 20 μl of a tetrahydrofuran-methanol mixture (mixture ratio 1:1) and the solution (20 μl) applied to the right ear immediately after TPA treatment. After 6 hour, the animals were sacrificed and right ear was punched out (.phi. […]) and weighed. The effect of comppund.was calculated as % inhibition as follows: [formula]

For `COc1ccc(N(Cc2ccc3ccccc3n2)C2=CC(=O)CC2)cc1O[C@@H]1C[C@H]2CC[C@@H]1C2` (relative stereo) [Compound No. 82, 3-[3-[(1RS,2RS,4SR)-bicyclo[2.2. 1]hept-2-yloxy]4-methoxy-N-(2-quinolinemethyl)anilino]-2-cyclopenten-1-one], the IC50 (commonly the concentration needed to halve the response being measured) in the experiment with Type IV PDE was found to be 530 nM. Moreover, the “% Inhibition of ear edema” value in experiment [1] is given as 84.4%.
The matching figures for `COc1ccc(NC2=CC(=O)CCC2)cc1O[C@@H]1C[C@H]2CC[C@@H]1C2` (relative stereo) [Compound No. 83, 3-[3-[rel(1R,2R,4S)-bicyclo[2.2. 1]hept-2-yloxy]-4-methoxyanilino]-2-cyclohexen-1-one]: 1600 nM and 70.5%.
For `COc1ccc(N(Cc2ccccc2)C2=CC(=O)CCC2)cc1O[C@@H]1C[C@H]2CC[C@@H]1C2` (relative stereo) [Compound No. 84, 3-[N-benzyl-3-[rel(1R,2R,4S)-bicyclo[2.2. 1]hept-2-yloxy]-4-methoxyanilino]-2-cyclohexen-1-one] the same measures were 1400 nM and 71.8%.
For `COc1ccc(NC2=CC(=O)CCC2)cc1OC1CCCC1` [Compound No. 2, 3-(3-cyclopentyloxy-4-methoxyanilino)-2-cyclohexen-1-one] the same measures were 3700 nM and 65.0%.
Regarding `COc1ccc(NC2=C(Br)C(=O)CC2)cc1OC1CCCC1` [Compound No. 7, 2-bromo-3-(3-cyclopentyloxy-4-methoxyanilino)-2-cyclopenten-1-one], the IC50 in the experiment on Type IV PDE is 280 nM. In experiment [1], the “% Inhibition of ear edema” value is on record as 55.8%.
For `COc1ccc(NC2=C(C)C(=O)CC2)cc1OCCc1ccccc1` [Compound No. 12, 3-(4-methoxy-3-phenethyloxyanilino)-2-methyl-2-cyclopenten-1-one] the same measures were 710 nM and 52.5%.
The matching figures for `COc1ccc(NC2=CC(=O)CC2)cc1OC1CCCCC1` [Compound No. 13, 3-(3-cyclohexyloxy-4-methoxyanilino)-2-cyclopenten-1-one]: 7400 nM and 51.8%.
On to `COc1ccc(NC2=C(C)C(=O)CC2)cc1OCC1CC1` [Compound No. 16, 3-(3-cyclopropylmethoxy-4-methoxyanilino)-2-methyl-2-cyclogenten-1-one], for which the IC50 with Type IV PDE worked out at 1000 nM. For the same compound, the “% Inhibition of ear edema” value in experiment [1] was found to be 72.1%.
On to `CCCCOc1cc(NC2=CC(=O)CC2)ccc1OC` [Compound No. 17, 3-(3-butoxy-4-methoxyanilino)-2-cyclopenten-1-one], for which, in the experiment with Type IV PDE, the IC50 was found to be 14000 nM. Besides, the “% Inhibition of ear edema” value in experiment [1] was 57.1%.
Take `COc1ccc(NC2=CC(=O)CCC2)cc1OC1Cc2ccccc2C1` [Compound No. 19, 3-[3-(2-indanyloxy)-4-methoxyanilino]-2-cyclohexen-1-one]: the IC50 with Type IV PDE came out at 1800 nM. For the same compound, in experiment [1], the “% Inhibition of ear edema” value is on record as 76.3%.
Consider `COc1ccc(N(C)C2=CC(=O)CC2)cc1OC1CCCC1` [Compound No. 26, 3-(3-cyclopentyloxy-4-methoxy-N-methylanilino)-2-cyclopenten-1-one], for which the IC50 with Type IV PDE was 800 nM. For the same compound, in experiment [1], the “% Inhibition of ear edema” value is 82.0%.
For `COc1ccc(N(C)C2=CC(=O)CCC2)cc1OC1CCCC1` [Compound No. 27, 3-(3-cyclopentyloxy-4-methoxy-N-methylanilino)-2-cyclohexen-1-one] the same measures were 1900 nM and 86.4%.
For `COc1ccc(N(Cc2ccncc2)C2=CC(=O)CC2)cc1OC1CCCC1` [Compound No. 28, 3-[3-cyclopentyloxy-4-methoxy-N-(4-pyridylmethyl)anilino]-2-cyclopenten-1-one], the IC50 in the experiment on Type IV PDE turned out to be 4300 nM. In addition, the “% Inhibition of ear edema” value in experiment [1] turned out to be 71.5%.
Turning to `COc1ccc(N(Cc2ccccc2)C2=CC(=O)CC2)cc1OC1CCCC1` [Compound No. 30, 3-(N-benzyl-3-cyclopentyloxy-4-methoxyanilino)-2-cyclopenten-1-one], in the experiment on Type IV PDE, the IC50 is 2600 nM. In addition, the “% Inhibition of ear edema” value in experiment [1] came out at 78.4%.
Turning to `CCC1=C(Nc2ccc(OC)c(OC3CCCC3)c2)CCC1=O` [Compound No. 31, 3-(3-cyclopentyloxy-4-methoxyanilino)-2-ethyl-2-cyclopenten-1-one], the IC50 in the experiment on Type IV PDE amounted to 220 nM. In addition, the “% Inhibition of ear edema” value in experiment [1] came to 73.4%.
The matching figures for `COc1ccc(NC2=C(Cc3ccccc3)C(=O)CC2)cc1OC1CCCC1` [Compound No. 33, 2-benzyl-3-(3-cyclopentyloxy-4-methoxyanilino)-2-cyclopenten-1-one]: 400 nM and 81.7%.
Consider `COc1ccc(NC2=C(C)C(=O)CC2)cc1OCCC1Cc2ccccc2C1` [Compound No. 35, 3-[3-[2-(2-indanyl)ethoxy]-4-methoxyanilino]-2-methyl-2-cyclopenten-1-one], for which the IC50 in the experiment on Type IV PDE was determined as 290 nM. For the same compound, the “% Inhibition of ear edema” value in experiment [1] came out at 52.5%.
For `COc1ccc(NC2=C(C)C(=O)CC2)cc1OC1CCOC1` (stereo not shown) [Compound No. 37, 3-[4-methoxy-3-(3-2,3,4,5-tetrahydrofuranyloxy)anilino]-2-methyl-2-cyclopenten-1-one] the same measures were 1200 nM and 51.8%.
The matching figures for `COc1ccc(NC2=C(C)C(=O)CCC2)cc1OC1Cc2ccccc2C1` [Compound No. 48, 3-[3-(2-indanyloxy)-4-methoxyanilino]-2-methyl-2-cyclohexen-1-one]: 82 nM and 53.8%.
For `COc1ccc(NC2=CC(=O)CC2)cc1OCC1(c2ccccc2)CC1` [Compound No. 49, 3-[4-methoxy-3-[(1-phenylcyclopropyl)methoxy]anilino]-2-cyclopenten-1-one] the same measures were 2300 nM and 54.3%.
In the case of `COc1ccc(NC2=C(C)C(=O)CC2)cc1OCC1(c2ccccc2)CC1` [Compound No. 50, 3-[4-methoxy-3-[(1-phenylcyclopropyl)methoxy]anilino]-2-methyl-2-cyclopenten-1-one], in the experiment with Type IV PDE, the IC50 came out at 620 nM. For the same compound, the “% Inhibition of ear edema” value in experiment [1] stood at 62.6%.
In the case of `COc1ccc(NC2=C(C)C(=O)CCC2)cc1OCCC1Cc2ccccc2C1` [Compound No. 53, 3-[3-[2-(2-indanyl)ethoxy]-4-methoxyanilino]-2-methyl-2-cyclohexen-1-one], in the experiment with Type IV PDE, the IC50 was determined as 220 nM. Moreover, the “% Inhibition of ear edema” value in experiment [1] stood at 55.9%.
As to `COc1ccc(NC2=C(C)C(=O)CCC2)cc1OC1CCCCC1` [Compound No. 55, 3-(3-cyclohexyloxy-4-methoxyanilino)-2-methyl-2-cyclohexen-1-one], in the experiment with Type IV PDE, the IC50 was determined as 2000 nM. Further, the “% Inhibition of ear edema” value in experiment [1] was determined as 70.8%.
The matching figures for `COc1ccc(N(Cc2ccccc2)C2=CC(=O)CC2)cc1OC1CCCCC1` [Compound No. 56, 3-(N-benzyl-3-cyclohexyloxy-4-methoxyanilino)-2-cyclopenten-1-one]: 5500 nM and 86.1%.
For `COc1ccc(N(Cc2ccc3ccccc3c2)C2=CC(=O)CC2)cc1OC1CCCCC1` [Compound No. 57, 3-[3-cyclohexyloxy-4-methoxy-N-(2-naphthylmethyl)anilino]-2-cyclopenten-1-one] the same measures were 1900 nM and 89.7%.
The matching figures for `COc1ccc(N(Cc2ccc3ccccc3n2)C2=CC(=O)CC2)cc1OC1CCCC1` [Compound No. 58, 3-[3-cyclopentyloxy-4-methoxy-N-(2-quinolylemethyl)anilino]-2-cyclopenten-1-one]: 530 nM and 58.7%.
As to `CCCN(C1=CC(=O)CC1)c1ccc(OC)c(OC2CCCC2)c1` [Compound No. 59, 3-(3-cyclopentyloxy-4-methoxy-N-propylanilino)-2-cyclopenten-1-one], the IC50 with Type IV PDE was 7400 nM. For the same compound, in experiment [1], the “% Inhibition of ear edema” value is reported as 60.1%.
For `COc1ccc(N(C2=CC(=O)CC2)C2CCCC2)cc1OC1CCCC1` [Compound No. 60, 3-(N-cyclopentyl-3-cyclopentyloxy-4-methoxyanilino)-2-cyclopenten-1-one] the same measures were 44000 nM and 78.5%.
For the compound `COc1ccc(N(Cc2ccccn2)C2=CC(=O)CC2)cc1OC1CCCC1` [Compound No. 61, 3-[3-cyclopentyloxy-4-methoxy-N-(2-pyridylmethyl)anilino]-2-cyclopenten-1-one], the IC50 in the experiment with Type IV PDE was determined as 3200 nM. Further, the “% Inhibition of ear edema” value in experiment [1] amounted to 66.2%.
